This is an account of results in patent US8686152B2, “4,4-disubstituted piperidine derivatives useful as inhibitors of dipeptidyl peptidase-1 (DPP-1)” (Janssen Pharmaceutica NV, priority 2010, dated 2014).

For orientation: IC50 means the concentration that gives 50% inhibition.

The assay concerns the target T1, recombinant human DPP-1 (Cathepsin C) (Homo sapiens, UniProt P53634).
T1 construct: made in house
The assay can be described thus: DPP-1 Inhibition Assay (In Vitro), fluorogenic substrate GR-AMC. Format: biochemical. The following applies: 0.15 nM DPP-1, 10 uM GR-AMC, pH 7.0, room temperature; average value where tested multiple times. As to the method:
Test compounds were assessed for DPP-1 (Cathepsin C) inhibitory activity using a fluorogenic substrate, GR-AMC (Glycine-Arginine-amino-4-methylcoumarin, Bachem, I-1215). The amount of amino-methylcoumarin released is proportional to the DPP-1 activity, and the reaction is monitored kinetically with a Molecular Devices plate reader using black 96-well plates.
All compounds were tested under room temperature conditions. The assay buffer consisted of 50 mM HEPES, pH 7.0, 100 mM NaCl, 2 mM glutathione (GSH), and 0.002% TWEEN 20. GSH and TWEEN 20 were added to the buffer fresh daily. Just prior to use, an in-house preparation of recombinant human DPP-1 (240 μM stock, MW 49.6 kD) was diluted 600-fold in assay buffer containing fresh 2 mM dithiothreitol (DTT) to activate the enzyme, then diluted into assay buffer (without DTT) 133-fold for a DPP-1 working solution of 3 nM. Test compounds were diluted in DMSO for 20× their final assay concentrations.
Additions to a 96-well black Costar 3915 plates were as follows: 90 μL of 11 μM GR-AMC, 5 μL test compound (followed by mixing), and 5 μL 3 nM DPP-1 to start the reaction. Fluorescent reactions were monitored kinetically at 360 nm excitation, 440 nm emission on a Molecular Devices Spectramax XPS reader. The Softmax Pro software of the reader determined the initial velocity of the selected data (the first 3-5 minutes of the reaction), and the best linear regression fit of the initial kinetic data. Final assay conditions were 0.15 nM DPP-1, 10 uM GR-AMC, 50 mM HEPES, pH 7.0, 100 mM NaCl, 2 mM GSH, 0.002% TWEEN 20, 1 uM DTT, 5.0% DMSO. Initial velocity rates were plotted vs. test compound concentration by use of a four-parameter logistics equation (nonlinear regression, sigmoidal dose-response (variable slope), with fixed Hill (1.0) using GraphPad Prism® software for determination of DPP-1 IC50. Within-run assay coefficient of variation (CV) was generally <10%; between-run CV <20%.
Representative compounds of the present invention were tested according to the procedure as described above, with results as listed in Table 5, below.

Counter-ions that a name gives are not always drawn.

T1 sequence (P53634 25-463): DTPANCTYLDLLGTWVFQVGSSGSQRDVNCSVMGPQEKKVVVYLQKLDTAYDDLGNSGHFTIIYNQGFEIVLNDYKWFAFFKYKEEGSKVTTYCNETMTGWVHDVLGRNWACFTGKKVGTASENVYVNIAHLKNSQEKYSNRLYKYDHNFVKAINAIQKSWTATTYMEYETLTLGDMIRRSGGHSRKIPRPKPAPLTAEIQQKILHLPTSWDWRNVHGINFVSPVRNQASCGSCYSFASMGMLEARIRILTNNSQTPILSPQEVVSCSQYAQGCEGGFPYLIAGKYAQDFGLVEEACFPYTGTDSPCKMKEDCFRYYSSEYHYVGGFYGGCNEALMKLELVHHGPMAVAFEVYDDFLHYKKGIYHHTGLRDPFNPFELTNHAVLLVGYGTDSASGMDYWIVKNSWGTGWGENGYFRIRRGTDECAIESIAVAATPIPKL

Turning to `COC(=O)C1(Cc2ccc(-c3ccccc3)cc2)CCN(C(=O)[C@@H](N)Cc2cccs2)CC1` [Compound 1], the IC50 was determined as 1800 nM.
For `N[C@@H](Cc1cccs1)C(=O)N1CCC(Cc2ccc(-c3ccccc3)cc2)(C(=O)O)CC1` [Compound 2] the value was greater than 10000 nM; for `N[C@@H](Cc1cccs1)C(=O)N1CCC(Cc2ccc(-c3ccccc3)cc2)(C(=O)NCC2CCCCC2)CC1` [Compound 3, (S)-1-(2-amino-3-(thiophen-2-yl)propanoyl)-4-(biphenyl-4-ylmethyl)-N-(cyclohexylmethyl)piperidine-4-carboxamide hydrochloride], 84 nM.
Consider `N[C@@H](Cc1cccs1)C(=O)N1CCC(Cc2ccc(-c3ccccc3)cc2)(C(=O)N2CCCCC2)CC1` [Compound 4], for which the IC50 came to 430 nM.
In the case of `CC[C@H](N)C(=O)N1CCC(Cc2ccc(-c3ccccc3)cc2)(C(=O)NCC2CCCCC2)CC1` [Compound 5], the IC50 was determined as 3000 nM.
Next, `N[C@@H](Cc1cccs1)C(=O)N1CCC(Cc2ccc(-c3ccccc3)cc2)(C(=O)NC2CCCCC2)CC1` [Compound 8]: 35 nM; `N[C@@H](Cc1c[nH]cn1)C(=O)N1CCC(Cc2ccc(-c3ccccc3)cc2)(C(=O)NCC2CCCCC2)CC1` [Compound 9]: 930 nM.
For `CC[C@H](N)C(=O)N1CCC(Cc2ccccc2)(C(=O)OCC2CCCCC2)CC1` [Compound 10], the IC50 was roughly 5000 nM.
`N[C@@H](Cc1cccs1)C(=O)N1CCC(Cc2ccccc2)(C(=O)OCC2CCCCC2)CC1` [Compound 11]: the IC50 came out at 220 nM.
On to `N[C@@H](Cc1c[nH]cn1)C(=O)N1CCC(Cc2ccccc2)(C(=O)OCC2CCCCC2)CC1` [Compound 12], for which the IC50 is roughly 5000 nM.
Regarding `CC[C@H](N)C(=O)N1CCC(Cc2ccc(Cl)cc2)(C(=O)OCC2CCCCC2)CC1` [Compound 13], the IC50 came to 4300 nM.
On to `N[C@@H](Cc1cccs1)C(=O)N1CCC(Cc2ccc(Cl)cc2)(C(=O)OCC2CCCCC2)CC1` [Compound 14], for which the IC50 is 350 nM.
As for `N#Cc1ccc(CC2(C(=O)OCC3CCCCC3)CCN(C(=O)[C@@H](N)Cc3c[nH]cn3)CC2)cc1` [Compound 16], the IC50 was found to be 1200 nM.
Turning to `CC[C@H](N)C(=O)N1CCC(Cc2ccc(C#N)cc2)(C(=O)OCC2CCCCC2)CC1` [Compound 17], the IC50 was 4400 nM.
For `N[C@@H](Cc1cccs1)C(=O)N1CCC(Cc2ccc(C(F)(F)F)cc2)(C(=O)OCC2CCCCC2)CC1` [Compound 19] the value was 400 nM.
With `N[C@@H](Cc1c[nH]cn1)C(=O)N1CCC(Cc2ccc(C(F)(F)F)cc2)(C(=O)OCC2CCCCC2)CC1` [Compound 20], the IC50 is 3100 nM.
For the compound `CC[C@H](N)C(=O)N1CCC(Cc2ccncc2)(C(=O)OCC2CCCCC2)CC1` [Compound 21], the concentration for half-maximal inhibition (IC50) came to 7400 nM.
Take `N[C@@H](Cc1cccs1)C(=O)N1CCC(Cc2ccncc2)(C(=O)OCC2CCCCC2)CC1` [Compound 22]: the IC50 is 93 nM.
For `CC[C@H](N)C(=O)N1CCC(Cc2cccnc2)(C(=O)OCC2CCCCC2)CC1` [Compound 23], the IC50 was found to be 8200 nM.
For `N[C@@H](Cc1cccs1)C(=O)N1CCC(Cc2cccnc2)(C(=O)OCC2CCCCC2)CC1` [Compound 24] the value was 99 nM; for `N[C@@H](Cc1c[nH]cn1)C(=O)N1CCC(Cc2cccnc2)(C(=O)OCC2CCCCC2)CC1` [Compound 25], 1800 nM; for `CC[C@H](N)C(=O)N1CCC(Cc2ccc(F)cc2F)(C(=O)OCC2CCCCC2)CC1` [Compound 26], 6100 nM.
On to `N[C@@H](Cc1cccs1)C(=O)N1CCC(Cc2ccc(F)cc2F)(C(=O)OCC2CCCCC2)CC1` [Compound 27], for which the IC50 was found to be 220 nM.
For `N[C@@H](Cc1c[nH]cn1)C(=O)N1CCC(Cc2ccc(F)cc2F)(C(=O)OCC2CCCCC2)CC1` [Compound 28] the value was 1700 nM; for `N[C@@H](Cc1cccs1)C(=O)N1CCC(Cc2cccc(-c3ccccc3)c2)(C(=O)OCC2CCCCC2)CC1` [Compound 30], 880 nM; for `N[C@@H](Cc1nccs1)C(=O)N1CCC(Cc2ccc(-c3ccccc3)cc2)(C(=O)NC2CCCCC2)CC1` [Compound 33], 230 nM.
With `N#CC[C@H](N)C(=O)N1CCC(Cc2ccc(-c3ccccc3)cc2)(C(=O)NC2CCCCC2)CC1` [Compound 36], the IC50 worked out at 600 nM.
Regarding `N[C@@H](Cc1ccco1)C(=O)N1CCC(Cc2ccc(-c3ccccc3)cc2)(C(=O)NC2CCCCC2)CC1` [Compound 37], the IC50 came to 230 nM.
For `COC[C@H](N)C(=O)N1CCC(Cc2ccc(-c3ccccc3)cc2)(C(=O)NC2CCCCC2)CC1` [Compound 39] the value was 18000 nM; for `N[C@@H](Cc1cccs1)C(=O)N1CCC(Cc2ccc(-c3ccc4c(c3)OCO4)cc2)(C(=O)NC2CCCCC2)CC1` [Compound 40], 35 nM.
For the compound `N[C@@H](Cc1cccs1)C(=O)N1CCC(Cc2ccc(I)cc2)(C(=O)NC2CCCCC2)CC1` [Compound 41], the IC50 was 37 nM.
Turning to `N[C@@H](Cc1cccs1)C(=O)N1CCC(Cc2ccc(-c3ccncc3)cc2)(C(=O)NC2CCCCC2)CC1` [Compound 42], the IC50 amounted to 29 nM.
For the compound `N[C@@H](Cc1cccs1)C(=O)N1CCC(Cc2ccc(-c3cncnc3)cc2)(C(=O)NC2CCCCC2)CC1` [Compound 43], the IC50 worked out at 29 nM.
Turning to `COc1ccc(-c2ccc(CC3(C(=O)NC4CCCCC4)CCN(C(=O)[C@@H](N)Cc4cccs4)CC3)cc2)cn1` [Compound 44], the 50% inhibitory concentration (IC50) was 29 nM.
With `CC(=O)Nc1ccccc1-c1ccc(CC2(C(=O)NC3CCCCC3)CCN(C(=O)[C@@H](N)Cc3cccs3)CC2)cc1` [Compound 45], the IC50 is 52 nM.
Turning to `COc1ncccc1-c1ccc(CC2(C(=O)NC3CCCCC3)CCN(C(=O)[C@@H](N)Cc3cccs3)CC2)cc1` [Compound 46], the IC50 came out at 38 nM.
Next, `N[C@@H](Cc1cccs1)C(=O)N1CCC(Cc2ccc(-c3cccnc3Cl)cc2)(C(=O)NC2CCCCC2)CC1` [Compound 48]: 39 nM; `N[C@@H](Cc1cccs1)C(=O)N1CCC(Cc2ccc(-c3ccc(O)nc3)cc2)(C(=O)NC2CCCCC2)CC1` [Compound 49]: 24 nM; `N[C@@H](Cc1cccs1)C(=O)N1CCC(Cc2ccc(-c3cccnc3)cc2)(C(=O)NC2CCCCC2)CC1` [Compound 50]: 35 nM.
On to `N#Cc1ccc(-c2ccc(CC3(C(=O)NC4CCCCC4)CCN(C(=O)[C@@H](N)Cc4cccs4)CC3)cc2)cc1` [Compound 51], for which the 50% inhibitory concentration (IC50) came to 35 nM.
For `N[C@@H](Cc1cccs1)C(=O)N1CCC(Cc2ccc(-c3ccc(C(=O)O)cc3)cc2)(C(=O)NC2CCCCC2)CC1` [Compound 52] the value was 100 nM; for `N[C@@H](Cc1cccs1)C(=O)N1CCC(Cc2ccc(-c3ccc(C(F)(F)F)cc3)cc2)(C(=O)NC2CCCCC2)CC1` [Compound 53], 140 nM; for `CC(=O)Nc1cccc(-c2ccc(CC3(C(=O)NC4CCCCC4)CCN(C(=O)[C@@H](N)Cc4cccs4)CC3)cc2)c1` [Compound 54], 31 nM.
`N[C@@H](Cc1cccs1)C(=O)N1CCC(Cc2ccc(-c3cccc(C(=O)O)c3)cc2)(C(=O)NC2CCCCC2)CC1` [Compound 55]: the IC50 was 100 nM.
Take `N[C@@H](Cc1cccs1)C(=O)N1CCC(Cc2ccc(C(=O)NC3CCCCC3)cc2)(C(=O)NC2CCCCC2)CC1` [Compound 56]: the IC50 is 49 nM.
For the compound `N[C@@H](Cc1cccs1)C(=O)N1CCC(Cc2ccc(C(=O)N3CCOCC3)cc2)(C(=O)NC2CCCCC2)CC1` [Compound 57], the IC50 was determined as 36.3 nM.
On to `N[C@@H](Cc1cccs1)C(=O)N1CCC(Cc2ccc(C(=O)N3CCCC3)cc2)(C(=O)NC2CCCCC2)CC1` [Compound 58], for which the 50% inhibitory concentration (IC50) amounted to 73 nM.
Next, `N[C@@H](Cc1cccs1)C(=O)N1CCC(Cc2ccc(C(=O)Nc3ccccc3)cc2)(C(=O)NC2CCCCC2)CC1` [Compound 60]: 33 nM; `NC(=O)c1ccc(CC2(C(=O)NC3CCCCC3)CCN(C(=O)[C@@H](N)Cc3cccs3)CC2)cc1` [Compound 61]: 47 nM.
As to `N[C@@H](Cc1cccs1)C(=O)N1CCC(Cc2ccc(C(=O)O)cc2)(C(=O)NC2CCCCC2)CC1` [Compound 62], the IC50 is 360 nM.
As to `N[C@@H](Cc1cccs1)C(=O)N1CCC(Cc2cccnc2)(C(=O)NC2CCCCC2)CC1` [Compound 66], the half-maximal inhibitory concentration (IC50) is 54 nM.
Consider `CC[C@H](N)C(=O)N1CCC(Cc2cccnc2)(C(=O)NC2CCCCC2)CC1` [Compound 67], for which the IC50 stood at 9100 nM.
As for `N[C@@H](Cc1c[nH]cn1)C(=O)N1CCC(Cc2cccnc2)(C(=O)NC2CCCCC2)CC1` [Compound 68], the IC50 was determined as 910 nM.
Regarding `N[C@@H](Cc1cccs1)C(=O)N1CCC(C(=O)NC2CCCCC2)(c2ccccc2)CC1` [Compound 69], the 50% inhibitory concentration (IC50) was 73 nM.
